Data reported in US20040048283A1, “Novel method for screening bacterial transcription modulators” (priority 2000, published 2004).
Entries after “also recorded” stand apart in the source; their conditions may differ.

Experiments:
[1] = target: T1, bond between the core enzyme of the RNA polymerase and the protein σ^70 (Escherichia coli, UniProt P0A7Z4+P0A8T7+P0A8V2); test: sigma70-RNA polymerase bond test (ELISA-type complexation test); format: binding, E. coli
T1 construct: made in house
Procedure: Thus, the different compounds tested are incubated in the presence of the core enzyme in a microassay dish on which the protein σ^70 is adsorbed, each well of the plate containing 1 μM of σ^70 during the adsorption phase.
The sigma70 proteins and the RNA polymerase of E. coli are expressed and purified under standard conditions (Burgess et al., Biochemistry, 1975, October 21; 14(21): 4634-8; Burgess R., Methods Enzymol 1996; 273: 145-9). The sigma70 protein is stored at −80° C. in (20 mM tris HCl pH 8; 5 M guanidine chloride; 10 mM β-mercaptoethanol; 50% glycerol) at a concentration of 100 μM. The core RNA polymerase is stored at −80° C. in (20 mM tris HCl pH 8, 100 mM KCl, 10 mM β-mercaptoethanol, 50% glycerol) at a concentration of 1 μM. The antipolymerase monoclonal antibody was obtained and purified by standard techniques (Short Protocols in Molecular Biology 2nd edition, John Wiley & Its) then chemically coupled to activated peroxidase (Boehringer Mannheim Biochemica ref. 1428861) according to the supplier's recommendations.
The test is based on the adsorption of sigma70 on an ELISA plate for 12 hours at 4° C. (6 pmoles of protein diluted in 100 μl of PBS per well, on Nunc-immuno plates, Maxisorp.). The protein dilutions and the buffers were optimized in order to reduce the non-specific bond of the RNA polymerase. After washing the plate with PBS 0.1% tween20, the plate is saturated with 200 μl of PBS 0.1% tween20, 1% BSA then incubated for 1 hour at ambient temperature with the RNA polymerase of E. coli (0.25 pmole of core RNA polymerase in 100 μl of PBS 0.1% tween 20, 1% BSA, 10 mM MgCl2) in the presence or in the absence of an optional inhibitor. […] The sigma70-RNA polymerase antibody complex is detected with a substrate of peroxidase, O-phenylenediamine, or another appropriate medium. […]
After three washings with 0.1% PBS-T (v/v), the peroxidase substrate is added (OPD, Biorad). The reaction takes place for 2 to 3 minutes in darkness then an absorbance measurement is carried out at 490 nm, after stopping the reaction with 50 μl of 4N H2SO4. […]

[2] = target: T2, bond between the RNA polymerase and the protein NusA (Escherichia coli, UniProt P0A7Z4+P0A8T7+P0A8V2); test: NusA-RNA polymerase bond test (ELISA-type complexation test); format: binding, E. coli
T2 construct: polyhistidine (C); made in house; host or cells: NusA: BL21 lambda DE3 E. coli cells (printed 'BL211amdaDE3'), pet21-type vector
Procedure: More precisely, the different compounds tested (from the family of 5,988,031) are incubated in the presence of core enzyme in a microassay dish on which the protein NusA is adsorbed at a concentration equal to 20 μg/ml.
The gene coding for the protein NusA and comprising a C-terminal polyhistidine tag was cloned in a pet21-type vector. After transfection in BL211amdaDE3 cells, the cells are cultured in LB medium at 37° C. under vigorous stirring. The production of protein is induced by the addition of 1 mM IPTG. After 3 hours' culture, the cells are recovered by centrifugation and lysed according to (Burgess et al., Biochemistry, 1975 October 21; 14(21): 4634-8). After centrifugation, the supernatant is passed over an Ni NTA agarose column (Quiagen) according to the supplier's recommendations. The protein NusA is stored at −80° C. in (20 mM tris HCl pH 8; 5 M guanidine chloride; 10 mM β-mercaptoethanol; 50% glycerol) at a concentration of 100 μM.
The test is based on the adsorption of NusA on an ELISA plate for 12 hours at 4° C. (6 pmoles of protein diluted in 100 μl of PBS per well on Nunc-immuno plates, Maxisorp.). The dilutions of protein and the buffers were optimized in order to reduce the non-specific bond of the RNA polymerase. […] The sigma70-RNA polymerase-antibody complex is detected with a substrate of peroxidase, O-phenylenediamine, or another appropriate medium. […]

[3] = target: bond between an antibody, for example 11D11, and the RNA polymerase (Escherichia coli, UniProt P0A7Z4+P0A8T7+P0A8V2); test: specificity: antibody-RNA polymerase bond; format: binding, E. coli
[4] = target: assembly of the α, β and β′ subunits (Escherichia coli, UniProt P0A7Z4+P0A8T7+P0A8V2); test: specificity: assembly of RNA polymerase subunits; format: binding, E. coli
E. coli TG1 cells = test: inhibition of growth in microassay dish; format: cell-based; conditions: FIG. 4; optical density at 650 nm after 12 hours at 37° C.
Procedure: FIG. 4 corresponds to the inhibition of the growth of E. coli TG1 cells by the abovementioned compound 5,988,031. This figure represents the optical density measured at 650 nm (y-axis) with reference to the concentration of the compound 5,988,031 in μg/ml (x-axis).
The E. coli TG1 cells, diluted according to the protocol described hereafter in the experimental part, are incubated with increasing concentrations of the compound 5,988,031. The growth of the bacteria is measured at 650 nm after incubation for 12 hours at 37° C. under stirring in a microassay dish.
The various compounds isolated are tested for their TG1 E. coli bacteria growth-inhibiting properties. Cells in stationary phase are diluted to {fraction (1/10,000)} in LB medium (tryptone 10 g; yeast extract 5 g; NaCl 5 g) and are transfected in a microassay dish (200 μl/well). The molecules are added to 10% DMSO, at a final concentration of 100 mg/ml. […] After incubation overnight at 37° C. under stirring, the optical density of each well at 650 nm is measured.

E. coli K12 = test: inhibition of growth in solid medium (inhibition diameter); format: cell-based; conditions: for diameter of inhibition, K12: solid medium
Procedure: (§1) A preculture of the strains E. coli K12, S. aureus and S. epidermis in Mueller Hinton Broth medium (Mueller and Hinton, 1941) is carried out at 37° C., until an optical density of 0.1 at 650 nm is obtained. 100 μl of the preculture is added to 10 ml of the medium: 0.1% agarose, 10 mM sodium phosphate pH 7.4; 0.3 mg/ml trypcase-soy; 100 mM NaCl.
(§2) The mixture is poured into a […] Petri dish. Wells are made in the gelose and 5 μl of the solutions to be tested, containing the screened products, are placed in each well. The dishes are left at ambient temperature for 2 hours, then 10 ml of the medium (1% agarose; 10 mM sodium phosphate—pH 7.4-6% trypcase-soy) are poured into the Petri dish forming an overlay. After solidification, the dishes are incubated overnight at 37° C.
(§3) The antibacterial activity is evaluated by measuring the diameter of the bacterial growth inhibition of the zone at the centre of which the product was placed.

S aureus = test: as above; format: cell-based; conditions: for diameter of inhibition, S aureus: solid medium
Procedure: as §1, §2, §3

M. Luteus = test: antibiotic activity on other strains tested; format: cell-based; conditions: concentration not given
S epidermidis = test: inhibition of growth in solid medium (inhibition diameter); format: cell-based
Procedure: as §1, §2, §3

[5] = other strains tested, concentration not given

T1 sequence (P0A8T7 whole entry): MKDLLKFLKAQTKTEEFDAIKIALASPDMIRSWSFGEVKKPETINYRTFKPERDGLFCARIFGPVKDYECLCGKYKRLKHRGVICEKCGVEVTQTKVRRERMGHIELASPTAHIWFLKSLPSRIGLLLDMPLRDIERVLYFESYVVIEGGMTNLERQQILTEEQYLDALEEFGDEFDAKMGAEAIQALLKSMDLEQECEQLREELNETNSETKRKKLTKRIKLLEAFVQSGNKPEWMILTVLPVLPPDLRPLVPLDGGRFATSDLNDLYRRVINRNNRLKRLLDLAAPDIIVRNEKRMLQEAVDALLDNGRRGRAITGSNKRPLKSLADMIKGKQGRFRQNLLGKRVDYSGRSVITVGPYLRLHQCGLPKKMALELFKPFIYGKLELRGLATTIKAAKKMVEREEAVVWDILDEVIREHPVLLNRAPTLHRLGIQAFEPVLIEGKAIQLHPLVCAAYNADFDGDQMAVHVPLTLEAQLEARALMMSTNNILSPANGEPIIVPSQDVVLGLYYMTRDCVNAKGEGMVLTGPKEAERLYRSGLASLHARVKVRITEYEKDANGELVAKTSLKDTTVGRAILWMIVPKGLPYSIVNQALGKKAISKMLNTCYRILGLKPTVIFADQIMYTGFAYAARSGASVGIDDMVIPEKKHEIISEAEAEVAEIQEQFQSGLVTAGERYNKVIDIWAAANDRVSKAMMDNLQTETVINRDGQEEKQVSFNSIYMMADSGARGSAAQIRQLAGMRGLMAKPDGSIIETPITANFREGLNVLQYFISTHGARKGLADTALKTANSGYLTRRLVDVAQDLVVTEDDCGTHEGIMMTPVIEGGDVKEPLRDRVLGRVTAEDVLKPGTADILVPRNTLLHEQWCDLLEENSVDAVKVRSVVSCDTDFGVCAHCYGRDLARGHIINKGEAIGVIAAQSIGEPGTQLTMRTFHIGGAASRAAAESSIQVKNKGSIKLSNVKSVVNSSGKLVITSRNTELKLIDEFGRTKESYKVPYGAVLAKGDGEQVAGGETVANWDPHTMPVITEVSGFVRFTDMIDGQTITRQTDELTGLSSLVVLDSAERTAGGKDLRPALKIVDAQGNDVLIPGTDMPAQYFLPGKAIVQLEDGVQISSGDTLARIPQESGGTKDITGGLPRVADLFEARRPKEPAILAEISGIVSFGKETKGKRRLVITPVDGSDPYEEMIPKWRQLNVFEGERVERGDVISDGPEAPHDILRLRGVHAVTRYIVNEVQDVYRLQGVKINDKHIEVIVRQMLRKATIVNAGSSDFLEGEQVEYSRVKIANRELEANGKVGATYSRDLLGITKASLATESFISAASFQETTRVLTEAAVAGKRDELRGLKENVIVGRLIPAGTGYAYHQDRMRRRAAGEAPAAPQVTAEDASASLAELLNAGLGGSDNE
T1 sequence (P0A8V2 whole entry): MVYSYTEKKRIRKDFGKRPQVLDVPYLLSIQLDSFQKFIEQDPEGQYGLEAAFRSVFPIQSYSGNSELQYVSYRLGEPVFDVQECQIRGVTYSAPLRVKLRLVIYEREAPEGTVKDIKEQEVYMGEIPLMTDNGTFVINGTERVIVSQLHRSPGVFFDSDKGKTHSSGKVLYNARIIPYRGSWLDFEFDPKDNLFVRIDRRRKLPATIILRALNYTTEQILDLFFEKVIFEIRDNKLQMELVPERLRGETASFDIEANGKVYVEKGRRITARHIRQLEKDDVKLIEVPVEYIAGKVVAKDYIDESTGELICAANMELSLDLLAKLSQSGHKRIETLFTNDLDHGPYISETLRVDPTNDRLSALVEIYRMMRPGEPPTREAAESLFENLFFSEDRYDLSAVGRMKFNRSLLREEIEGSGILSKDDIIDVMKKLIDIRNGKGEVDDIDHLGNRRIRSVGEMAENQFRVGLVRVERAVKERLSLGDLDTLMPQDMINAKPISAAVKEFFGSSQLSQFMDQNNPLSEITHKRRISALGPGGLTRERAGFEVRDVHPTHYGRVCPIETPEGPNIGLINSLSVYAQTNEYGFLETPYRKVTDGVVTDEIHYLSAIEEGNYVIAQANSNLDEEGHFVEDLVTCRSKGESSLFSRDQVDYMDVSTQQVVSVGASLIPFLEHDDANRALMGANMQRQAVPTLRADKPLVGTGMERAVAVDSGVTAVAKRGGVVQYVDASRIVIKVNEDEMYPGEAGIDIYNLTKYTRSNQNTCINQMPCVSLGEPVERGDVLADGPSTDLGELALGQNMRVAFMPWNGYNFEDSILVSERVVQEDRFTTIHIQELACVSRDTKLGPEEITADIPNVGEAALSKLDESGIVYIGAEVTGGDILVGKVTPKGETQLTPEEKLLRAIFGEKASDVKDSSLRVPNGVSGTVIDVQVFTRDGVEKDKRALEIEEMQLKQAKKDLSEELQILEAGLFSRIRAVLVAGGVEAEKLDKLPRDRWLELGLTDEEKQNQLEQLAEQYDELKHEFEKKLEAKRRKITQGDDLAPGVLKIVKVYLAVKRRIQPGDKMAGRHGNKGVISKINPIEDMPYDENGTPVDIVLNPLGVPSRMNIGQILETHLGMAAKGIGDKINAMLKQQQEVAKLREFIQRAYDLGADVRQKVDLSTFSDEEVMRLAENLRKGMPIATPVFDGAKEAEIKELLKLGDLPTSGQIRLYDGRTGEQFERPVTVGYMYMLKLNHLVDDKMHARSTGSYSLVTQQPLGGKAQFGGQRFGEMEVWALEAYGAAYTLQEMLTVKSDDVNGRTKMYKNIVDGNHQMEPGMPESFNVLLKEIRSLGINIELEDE
T1 sequence (P0A7Z4 whole entry): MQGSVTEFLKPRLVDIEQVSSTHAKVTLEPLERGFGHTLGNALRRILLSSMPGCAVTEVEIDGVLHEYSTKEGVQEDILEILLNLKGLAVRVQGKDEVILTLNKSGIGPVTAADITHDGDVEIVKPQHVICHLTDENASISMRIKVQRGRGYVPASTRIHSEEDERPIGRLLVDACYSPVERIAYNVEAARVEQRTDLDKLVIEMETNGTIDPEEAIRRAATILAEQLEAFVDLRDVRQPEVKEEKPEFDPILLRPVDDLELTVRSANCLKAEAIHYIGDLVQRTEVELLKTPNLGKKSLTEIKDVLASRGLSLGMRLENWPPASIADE

Compound	inhibition of the bond between σ^70 and the RNA polymerase (in words) [1]	diameter of inhibition, K12 (E. coli K12; 500 μg/ml)	diameter of inhibition, S aureus (S aureus; 500 μg/ml)	diameter of inhibition, S epidermidis (S epidermidis; 500 μg/ml)	further results
Cc1ccc(C)n1-c1ccc(OCC(=O)O)cc1 [compound 5,988,031]	most active; also recorded: inhibits	–	–	–	IC50 ([1]; FIG. 1, σ^70 adsorbed on plate, core enzyme, antibody 11D11-peroxidase, read-out: concentration giving 50% inhibition of the bond between σ^70 and the RNA polymerase (converted)): ~20.4 µM; inhibition of the bond between NusA and the RNA polymerase (in words) [2]: inhibits; inhibition of the bond between an antibody (11D11) and the RNA polymerase (in words) [3]: not; inhibition of the assembly of the α, β and β′ subunits (in words) [4]: not; inhibition of the growth of E. coli TG1 cells (in words) (E. coli TG1 cells): inhibits; activity on E. coli K12 (in words) (E. coli K12; [5]): not active; activity on S. aureus (in words) (S aureus; [5]): not active; activity on M. Luteus (in words) (M. Luteus): not active
CN[C@H](CC(C)C)C(=O)N[C@H]1C(=O)N[C@@H](CC(N)=O)C(=O)N[C@H]2C(=O)N[C@H]3C(=O)N[C@H](C(=O)N[C@H](C(=O)O)c4cc(O)cc(O)c4-c4cc3ccc4O)[C@H](O)c3ccc(c(Cl)c3)Oc3cc2cc(c3O[C@@H]2O[C@H](CO)[C@@H](O)[C@H](O)[C@H]2O[C@H]2C[C@](C)(N)[C@H](O)[C@H](C)O2)Oc2ccc(cc2Cl)[C@H]1O [vancomycin, reference compound]	–	–	–	–	diameter of inhibition, K12 (E. coli K12; 50 μg/ml): negative; diameter of inhibition, S aureus (S aureus; 50 μg/ml): 5 mm; diameter of inhibition, S epidermidis (S epidermidis; 50 μg/ml): 5 mm
COc1ccc(-c2ccc(/C=C/C(=O)c3cc4ccccc4o3)o2)cc1 [compound 5,858,445]	most active	negative	4.2 mm	4.2 mm	–
O=C(/C=C/c1ccc(-c2cccc([N+](=O)[O-])c2)o1)c1cc2ccccc2o1 [5,768,818]	–	negative	negative	negative	–
O=C(/C=C/c1ccc(-c2ccc([N+](=O)[O-])cc2)o1)c1cc2ccccc2o1 [5,761,890]	–	negative	negative	negative	–
